# From patent US4987258A, “4,4'-diaminodiphenyl compounds, process for their preparation and their use” (Hoechst Aktiengesellschaft, priority 1987, dated 1991)
# System: Salmonella typhimurium (strains TA 98, TA 100, TA 1535, TA 1537, TA 1538)
# Assay: Ames mutagenicity test with Salmonella typhimurium in the absence and presence of S-9-mix
# Format: cell-based
# Settings: for Ames mutagenicity test: Examples 1-3
# Description: The examples below will describe the invention in more detail. The mutagenicity test was carried out, following Ames, with Salmonella typhimurium (strains TA 98, TA 100, TA 1535, TA 1537, TA 1538) in the absence and presence of S-9-mix (B. N. Ames et al., Mut. Res. Vol. 31, p. 347-364 (1975)).
SMILES,Ames test,Ames mutagenicity test
CCC(C)c1cc(-c2ccc(N)c(C(C)CC)c2)ccc1N (stereo not shown),negative,
"CC(C)c1cc(-c2ccc(N)c(C(C)C)c2)ccc1N [Example 1, 3,3-diisopropylbenzidine dichlorohydrate]",,negative
"CC(C)COc1cc(-c2ccc(N)c(OCC(C)C)c2)ccc1N [Example 2, 3,3'-diisobutoxybenzidine]",,negative
"COCCOc1cc(-c2ccc(N)c(OCCOC)c2)ccc1N [Example 3, 3,3'-di(2-methoxyethoxy)-benzidine]",,negative
CCCc1cc(-c2ccc(N)c(CCC)c2)ccc1N [Example 4],negative,
CCCCc1cc(-c2ccc(N)c(CCCC)c2)ccc1N [Example 5],negative,
CC(C)Cc1cc(-c2ccc(N)c(CC(C)C)c2)ccc1N [Example 6],negative,
CCCOc1cc(-c2ccc(N)c(OCCC)c2)ccc1N [Example 8],negative,
CC(C)Oc1cc(-c2ccc(N)c(OC(C)C)c2)ccc1N [Example 9],negative,
CCC(C)Oc1cc(-c2ccc(N)c(OC(C)CC)c2)ccc1N (stereo not shown) [Example 10],negative,
